Key:
[1] = tested on: Rabbit; experiment: Arteriosclerosis suppressing effect, rabbit on hyperfat feed; type: in vivo; settings: 0.2 to 0.05% mixed to hyperfat feed
Excerpt: (§1) As to prevention/therapy of arteriosclerosis, a big difference is observed in effect between medicaments conceivably effective in improving arteriosclerosis, such as fibrate series medicament, thiazolidine series medicament, probucol, and statin series medicament and a compound of the present invention.

[2] = tested on: DOCA hypertension rat; experiment: Hypercardia, thickened arteries, edema in organs; type: in vivo
Excerpt: as §1

[3] = tested on: hypercholesterolemia patients; experiment: Clinical test I; type: in vivo, human; settings: for Fasting blood sugar (FBS) level: 5 patients with high blood sugar
Excerpt: The participants consisted of 9 Caucasian males and 7 Caucasian females. They participated in Clinical test I on a voluntary basis after they signed informed consent for clinical test participation, which was proposed by a medical institution based on the Helsinki declaration.
Their ages were 55 years old in average and ranging from 40 to 82 years old. Their average body weigh was 70.2±13.57 kg (standard deviation).
All participants took dietary therapy for treating hypercholesterolemia. Since various medicaments were administered, the period of 8 weeks, prior to Clinical test I, was provided to stop taking all pills, thereby washing out effects of medicaments. During the period of the Clinical test I, it was not allowed to take any other medicament together with a test medicament. Patients with type II diabetes were excluded from the participants; however, 5 patients with a high blood sugar level were included in the participants. Since they were not diagnosed as diabetes, they were allowed to participate in the test. Of 16 participants, 10 patients had hypertension and 4 patients had borderline hypertension defined by WHO. Only 2 patients had normal blood pressure.

[4] = Borderline hypertensive group, 4 patients, 10th week, Placebo period after 8 weeks of medication
[5] = Borderline hypertensive group, 4 patients, 12th week, Placebo period after 8 weeks of medication
[6] = Hypertension group, 10 patients, 10th week, Placebo period after 8 weeks of medication
[7] = Hypertension group, 10 patients, 12th week, Placebo period after 8 weeks of medication

Question: What does the source list for `COc1c(Cl)c(C)c(C=O)c(O)c1C/C=C(C)/C=C/[C@@]1(C)[C@H](C)CCC(=O)[C@@H]1C` [4-O-methylascochlorin]?
Answer: death from circulatory failure [1]: infarction derived from arteriosclerosis of the arteria coronaria and suppressing death; edema of various organs including the kidney [2]: such as hypercardia and thickened arteries, and suppresses edema of various; lesions associated with cardiovascular diseases such as hypercardia and thickened arteries [2]: 4-0-methylascochlorin alleviates lesions associated with cardiovascular diseases; normal blood pressure ([3]; 2 patients of normal blood pressure): does not affect normal blood pressure; blood sugar levels ([3]; 5 cases exhibiting high blood sugar): brought back to normal levels; Fasting blood sugar (FBS) level ([3]; 1st week, 0.5 mg/kg, before medication 132.4 ± 16.0): 100.0 ± 11.0 mg/dL; Fasting blood sugar (FBS) level ([3]; 2nd week, 1.0 mg/kg, before medication 132.4 ± 16.0): 102.0 ± 4.0 mg/dL; Fasting blood sugar (FBS) level ([3]; 3rd week, 2.0 mg/kg, before medication 132.4 ± 16.0): 103.6 ± 12.1 mg/dL; Fasting blood sugar (FBS) level ([3]; 4th week, 4.0 mg/kg, before medication 132.4 ± 16.0): 103.2 ± 11.7 mg/dL; Fasting blood sugar (FBS) level ([3]; 6th week, 8.0 mg/kg, before medication 132.4 ± 16.0): 98.0 ± 4.6 mg/dL; Fasting blood sugar (FBS) level ([3]; 8th week, 16.0 mg/kg, before medication 132.4 ± 16.0): 93.3 ± 6.1 mg/dL; Fasting blood sugar (FBS) level ([3]; 10th week, Placebo period after 8 weeks of medication): 93.5 ± 6.4 mg/dL; Fasting blood sugar (FBS) level ([3]; 12th week, Placebo period after 8 weeks of medication): 100.5 ± 11.6 mg/dL; Blood sugar level ([3]; 5 patients, 6th week, 8 mg/kg): completely returns to a normal level; Total serum cholesterol ([3]; 6th week, 16 folds the amount of 0.5 mg/kg): decreased to the upper limit of the normal range; decrease of body weight compared to before medication ([3]; 8 weeks after the initiation of medication, P<0.001): 0.9 kg; blood pressure of the systolic period and the diastolic period ([3]; 10 hypertensive patients, 8th week): decreased both pressure values to normal levels; lowering of serum total cholesterol by medication ([3]; 16 hypercholesterolemia patients): ≥ 30%; Total serum cholesterol ([3]; 16 hypercholesterolemia patients, 1st week, 0.5 mg/kg, before medication 342.0 ± 61.0): 272.6 ± 62.7 mg/dL; Total serum cholesterol ([3]; 16 hypercholesterolemia patients, 2nd week, 1.0 mg/kg, before medication 342.0 ± 61.0): 266.5 ± 66.7 mg/dL; Total serum cholesterol ([3]; 16 hypercholesterolemia patients, 3rd week, 2.0 mg/kg, before medication 342.0 ± 61.0): 268.7 ± 66.0 mg/dL; Total serum cholesterol ([3]; 16 hypercholesterolemia patients, 4th week, 4.0 mg/kg, before medication 342.0 ± 61.0): 254.2 ± 65.7 mg/dL; Total serum cholesterol ([3]; 16 hypercholesterolemia patients, 6th week, 8.0 mg/kg, before medication 342.0 ± 61.0): 217.4 ± 58.8 mg/dL; Total serum cholesterol ([3]; 16 hypercholesterolemia patients, 8th week, 16.0 mg/kg, before medication 342.0 ± 61.0): 229.5 ± 61.9 mg/dL; Total serum cholesterol ([3]; 16 hypercholesterolemia patients, 10th week, Placebo period after 8 weeks of medication): 255.9 ± 57.6 mg/dL; Total serum cholesterol ([3]; 16 hypercholesterolemia patients, 12th week, Placebo period after 8 weeks of medication): 264.0 ± 57.5 mg/dL; abnormality in the serum biological test, hematocyte test, and urine test ([3]; 16 patients, 12 weeks): No abnormality ascribed to medication; side effect ([3]; 16 patients, 12 weeks, 0.5 to 16.0 mg/kg, not so severe, medication continued): one case with light eruption and one case with dizziness; Diastolic pressure ([3]; Borderline hypertensive group, 4 patients, 1st week, 0.5 mg/kg, before medication 87.1 ± 2.7): 82.1 ± 3.9 mmHg; Systolic pressure ([3]; Borderline hypertensive group, 4 patients, 1st week, 0.5 mg/kg, before medication 149.3 ± 7.9): 133.6 ± 9.0 mmHg; Diastolic pressure ([3]; Borderline hypertensive group, 4 patients, 2nd week, 1.0 mg/kg, before medication 87.1 ± 2.7): 81.4 ± 4.8 mmHg; Systolic pressure ([3]; Borderline hypertensive group, 4 patients, 2nd week, 1.0 mg/kg, before medication 149.3 ± 7.9): 134.3 ± 6.7 mmHg; Diastolic pressure ([3]; Borderline hypertensive group, 4 patients, 3rd week, 2.0 mg/kg, before medication 87.1 ± 2.7): 81.4 ± 2.4 mmHg; Systolic pressure ([3]; Borderline hypertensive group, 4 patients, 3rd week, 2.0 mg/kg, before medication 149.3 ± 7.9): 134.3 ± 9.3 mmHg; Diastolic pressure ([3]; Borderline hypertensive group, 4 patients, 4th week, 4.0 mg/kg, before medication 87.1 ± 2.7): 80.7 ± 3.5 mmHg; Systolic pressure ([3]; Borderline hypertensive group, 4 patients, 4th week, 4.0 mg/kg, before medication 149.3 ± 7.9): 130.7 ± 8.9 mmHg; Diastolic pressure ([3]; Borderline hypertensive group, 4 patients, 6th week, 8.0 mg/kg, before medication 87.1 ± 2.7): 78.6 ± 3.8 mmHg; Systolic pressure ([3]; Borderline hypertensive group, 4 patients, 6th week, 8.0 mg/kg, before medication 149.3 ± 7.9): 130.7 ± 8.9 mmHg; Diastolic pressure ([3]; Borderline hypertensive group, 4 patients, 8th week, 16.0 mg/kg, before medication 87.1 ± 2.7): 77.9 ± 3.9 mmHg; Systolic pressure ([3]; Borderline hypertensive group, 4 patients, 8th week, 16.0 mg/kg, before medication 149.3 ± 7.9): 130.0 ± 8.2 mmHg; Diastolic pressure [3, 4]: 78.6 ± 4.8 mmHg; Systolic pressure [3, 4]: 130.7 ± 9.3 mmHg; Diastolic pressure [3, 5]: 78.6 ± 4.8 mmHg; Systolic pressure [3, 5]: 132.1 ± 10.4 mmHg; Diastolic pressure ([3]; Hypertension group, 10 patients, 1st week, 0.5 mg/kg, before medication 91.0 ± 7.7): 83.5 ± 4.7 mmHg; Systolic pressure ([3]; Hypertension group, 10 patients, 1st week, 0.5 mg/kg, before medication 161.5 ± 21.1): 143.5 ± 28.5 mmHg; Diastolic pressure ([3]; Hypertension group, 10 patients, 2nd week, 1.0 mg/kg, before medication 91.0 ± 7.7): 83.0 ± 5.4 mmHg; Systolic pressure ([3]; Hypertension group, 10 patients, 2nd week, 1.0 mg/kg, before medication 161.5 ± 21.1): 147.5 ± 28.5 mmHg; Diastolic pressure ([3]; Hypertension group, 10 patients, 3rd week, 2.0 mg/kg, before medication 91.0 ± 7.7): 84.5 ± 6.0 mmHg; Systolic pressure ([3]; Hypertension group, 10 patients, 3rd week, 2.0 mg/kg, before medication 161.5 ± 21.1): 147.5 ± 26.1 mmHg; Diastolic pressure ([3]; Hypertension group, 10 patients, 4th week, 4.0 mg/kg, before medication 91.0 ± 7.7): 85.5 ± 9.44 mmHg; Systolic pressure ([3]; Hypertension group, 10 patients, 4th week, 4.0 mg/kg, before medication 161.5 ± 21.1): 148.5 ± 26.8 mmHg; Diastolic pressure ([3]; Hypertension group, 10 patients, 6th week, 8.0 mg/kg, before medication 91.0 ± 7.7): 83.5 ± 9.44 mmHg; Systolic pressure ([3]; Hypertension group, 10 patients, 6th week, 8.0 mg/kg, before medication 161.5 ± 21.1): 144.5 ± 29.8 mmHg; Diastolic pressure ([3]; Hypertension group, 10 patients, 8th week, 16.0 mg/kg, before medication 91.0 ± 7.7): 78.1 ± 3.7 mmHg; Systolic pressure ([3]; Hypertension group, 10 patients, 8th week, 16.0 mg/kg, before medication 161.5 ± 21.1): 130.0 ± 7.6 mmHg; Diastolic pressure [3, 6]: 83.5 ± 8.8 mmHg; Systolic pressure [3, 6]: 145.5 ± 26.3 mmHg; Diastolic pressure [3, 7]: 84.0 ± 9.7 mmHg; Systolic pressure [3, 7]: 151.5 ± 32.4 mmHg; blood pressure of the hypertension group and borderline hypertension group ([3]; medication for 8 weeks): dropped to the upper limit of a normal range; drop of total serum cholesterol, average ([3]; one week after 0.5 mg/kg perorally): 70 mg/dL; Serum neutral fat ([3]; ratio of serum neutral fat/serum total cholesterol 1.2 or less (hyperlipemia type IIa)): significantly decreased; Serum neutral fat ([3]; ratio of serum neutral fat/serum total cholesterol 1.2 or more (hyperlipemia type IIb and type IV)): a significant decrease of serum neutral fat was not observed

From patent publication US20050153870A1, “Medicinal composition for diagnosis, prevention, or therapy of multiple risk factor syndrome” (priority 2002, published 2005)
